Laboratory results: US6610523B1, “Cytokine-, stress-, and oncoprotein-activated human protein kinase kinases” (University of Massachusetts, priority 1995, dated 2003)

Key:
Type in all cases: cell-based
JNK1 [1] = test: Immunecomplex protein kinase assay of JNK1 from treated HeLa cells, ATF2 as substrate; settings: for JNK1 activation (in words): PMA 10 nM, EGF 10 nM, sorbitol 300 mM, interleukin-1 10 ng/ml, TNFα 10 ng/ml; for Relative Protein Kinase Activity JNK: control = 1.0
Experimental: (§1) The effect of phorbol ester, EGF, UV radiation, osmotic stress, IL-1, tumor necrosis factor (TNF), and LPS on p38 MAP kinase and JNK1 activity were measured in immunecomplex protein kinase assays using ATP [γ-^32P] and ATF2 as substrates. TNFα and IL-1α were from Genzyme Corp. Lipolysaccharide (LPS) was isolated from lyophilized Salmonella minesota Re595 bacteria as described (Mathison et a. (1988) J. Clin. Invest. 81:1925). Phorbol myristate acetate was from Sigma. EGF was purified from mouse salivary glands (Davis (1988) J. Biol. Chem. 263:9462). Kinase assays were performed using immunoprecipitates of p38 and JNK. The immunocomplexes were washed twice with kinase buffer (described above), and the assays initiated by the addition of 1 μg of ATF2 and 50 μM [γ-^32P]ATP (10 Ci/mmol) in a final volume of 25 μl. The reactions were terminated after 30 minutes at 30° C. by addition of Laemmli sample buffer. The phosphorylation of ATF2 was examined after SDS-PAGE by autoradiography, and the rate of ATF2 phosphorylation quantitated by PhosphorImager analysis. […]

p38 MAP kinase [2] = test: Immunecomplex protein kinase assay of p38 MAP kinase from treated HeLa cells, ATF2 as substrate; settings: for p38 activation (in words): PMA 10 nM, EGF 10 nM, sorbitol 300 mM, interleukin-1 10 ng/ml, TNFα 10 ng/ml; for Relative Protein Kinase Activity p38: control = 1.0
Experimental: as §1

JNK1 [3] = test: JNK1 immunecomplex kinase assay (c-Jun substrate) in CHO cells expressing epitope-tagged JNK1 after osmotic shock
Experimental: CHO cells were co-transfected with the plasmid pCMV-Flag-Jnk1 and pRSV-Neo (Dérijard et al. (1994) supra) . A stable cell line expressing epitope-tagged Jnk1 (Flag; Immunex Corp.) was isolated by selection with Geneticin (Gibco-BRL). The cells were incubated with 0, 100, 150, 300, 600, or 1000 mM sorbitol for 1 hour at 37° C. The cells were collected in lysis buffer (20 mM Tris, pH 7.4, 1% TRITON® X-100, 2 mM EDTA, 137 mM NaCl, 25 mM β-glycerophosphate, 1 mM orthovanadate, 2 mM pyrophosphate, 10% glycerol, 1 mM phenylmethylsulfonyl fluoride, 10 μg/ml leupeptin) and a soluble extract was obtained by centrifugation at 100,000 g for 30 minutes at […]. The epitope-tagged JNK1 was isolated by immunoprecipitation with the monoclonal antibody M2 (Immunex Corp.). The immunoprecipitates were washed extensively with lysis buffer. Immunecomplex kinase assays were done in 25 μl of 25 mM Hepes, pH 7.4, 25 mM MgCl2, 25 mM β-glycerophosphate, 2 mM dithiothreitol, 100 AM orthovanadate, and 50 AM ATP [γ-^32P] (10 Ci/mmole) with 2.5 μg of bacterially expressed c-Jun (residues 1-79) fused to glutathione-S-transferase (GST) as a substrate. The phosphorylation of c-Jun was examined after SDS-PAGE by autoradiography and PhosphorImager (Molecular Dynamics Inc.) analysis.
The time course of JNK1 protein kinase activation was measured in cells incubated in medium supplemented with 300 mM sorbitol as described above. Increased JNK1 activity was observed within 5 minutes of exposure to sorbitol, with maximum activity occurring after 15-30 minutes.

p38 MAP kinase [4] = test: Immunecomplex protein kinase assay of p38 MAP kinase from CHO cells that express human CD14, ATF2 as substrate
Experimental: (§2) The effect of phorbol ester, EGF, UV radiation, osmotic stress, IL-1, tumor necrosis factor (TNF), and LPS on p38 MAP kinase and JNK1 activity were measured in immunecomplex protein kinase assays using ATP [γ-^32P] and ATF2 as substrates. TNFα and IL-1α were from Genzyme Corp. Lipolysaccharide (LPS) was isolated from lyophilized Salmonella minesota Re595 bacteria as described (Mathison et a. (1988) J. Clin. Invest. 81:1925). Phorbol myristate acetate was from Sigma. EGF was purified from mouse salivary glands (Davis (1988) J. Biol. Chem. 263:9462). Kinase assays were performed using immunoprecipitates of p38 and JNK. The immunocomplexes were washed twice with kinase buffer (described above), and the assays initiated by the addition of 1 μg of ATF2 and 50 μM [γ-^32P]ATP (10 Ci/mmol) in a final volume of 25 μl. The reactions were terminated after 30 minutes at 30° C. by addition of Laemmli sample buffer. The phosphorylation of ATF2 was examined after SDS-PAGE by autoradiography, and the rate of ATF2 phosphorylation quantitated by PhosphorImager analysis.
(§3) The effect of LPS on the activity of p38 was examined using CHO cells that express human CD14.

JNK1 [5] = test: Immunecomplex protein kinase assay of JNK1 from CHO cells that express human CD14, ATF2 as substrate
Experimental: as §2, §3

p38 MAP kinase [6] = test: p38 MAP kinase immunecomplex assay (ATF2 substrate) in transfected COS-1 cells; settings: COS-1 cells transfected with epitope-tagged p38; 10 nM EGF
Experimental: COS-1 cells were transfected with epitope-tagged p38 MAP kinase, together with an empty expression vector or an expression vector encoding MEK1, MKK3, or MKK4α. Some of the cultures were exposed to UV radiation (40 J/m^2) or treated with 10 nM EGF. p38 MAP kinase was isolated by immunoprecipitation with M2 monoclonal antibody, and the protein kinase activity was measured in the immunecomplex with [γ-^32P]ATP and ATF2 as substrates. The product of the phosphorylation reaction was visualized after SDS-PAGE by autoradiography. […] MKK3 and MKK4 phosphorylation of ATF2 was similar to that seen with p38 MAP kinase isolated from UV-irradiated cells.

ATF2 = test: Electrophoretic mobility of ATF2 by immuno-blot in JNK1-transfected CHO cells; settings: IL-1α 10 ng/ml or fetal bovine serum 20%, 30 minutes at 37° C.
Experimental: CHO cells were maintained in Ham's F12 medium supplemented with 5% […] (Gibco-BRL). Cells were labeled and transfected with JNK1 as described above. CHO cells were treated with UV-C (40 J/m^2), IL-1α (10 ng/ml) (Genzyme), or fetal bovine serum (20%) (Gibco-BRL). The cells were incubated for 30 minutes at 37° C. prior to harvesting. The electrophoretic mobility of ATF2 after SDS-PAGE was examined by protein immuno-blot analysis.

[7] = tested on: reporter plasmid pG5E1bLuc (GAL4 sites, firefly luciferase gene); test: GAL4-ATF2 fusion protein co-transfection assay with luciferase reporter plasmid pG5E1bLuc in CHO cells; settings: luciferase and β-galactosidase mean activity ratio of three experiments
Experimental: A fusion protein consisting of ATF2 and the GAL4 DNA binding domain was expressed in CHO cells as described above. The activity of the GAL4-ATF2 fusion protein was measured in co-transfection assays with the reporter plasmid pG5E1bLuc (Seth et al. (1992) J. Biol. Chem. 267:24796, hereby specifically incorporated by reference). The reporter plasmid contains five GAL4 sites cloned upstream of a minimal promoter element and the firefly luciferase gene. Transfection efficiency was monitored with a control plasmid that expresses β-galactosidase (pCH110; Pharmacia-LKB Biotechnology). The luciferase and β-galactosidase activity detected in cell extracts was measured as the mean activity ratio of three experiments (Gupta et al. (1993) Proc. Natl. Acad. Sci. USA 90:3216, hereby specifically incorporated by reference).

[8] = CHO cells that express human CD14, 10 ng/ml, control = 1.0

Molecule: Tumor Necrosis Factor
- JNK1 activation (in words) (JNK1 [1]): strongly activated
- Relative Protein Kinase Activity JNK (JNK1 [1]): 19.3
- p38 activation (in words) (p38 MAP kinase [2]): strongly activated
- Relative Protein Kinase Activity p38 (p38 MAP kinase [2]): 10.3

Molecule: OC[C@@H](O)[C@@H](O)[C@H](O)[C@@H](O)CO [sorbitol]
- JNK1 activation (in words) (JNK1 [1]): strongly activated
- Relative Protein Kinase Activity JNK (JNK1 [1]): 18.1
- p38 activation (in words) (p38 MAP kinase [2]): strongly activated
- Relative Protein Kinase Activity p38 (p38 MAP kinase [2]): 4.2
- time of maximum JNK1 activity (JNK1 [3]; 300 mM sorbitol): 15 to 30 min
- time to increased JNK1 activity (JNK1 [3]; 300 mM sorbitol): ≤ 5 min
- JNK1 activation (in words) (JNK1 [3]; 100, 150, 300, 600 or 1000 mM sorbitol, 1 hour at 37° C.): JNK1 activation was observed at all concentrations

Molecule: CCCCCCCCCCCCCC(=O)O[C@@H]1[C@@H](C)[C@@]2(O)[C@@H](C=C(CO)C[C@]3(O)C(=O)C(C)=C[C@@H]23)[C@@H]2C(C)(C)[C@]12OC(C)=O [Phorbol Ester, Phorbol myristate acetate]
- JNK1 activation (in words) (JNK1 [1]): very weakly activated
- Relative Protein Kinase Activity JNK (JNK1 [1]): 2.3
- p38 activation (in words) (p38 MAP kinase [2]): very weakly activated
- Relative Protein Kinase Activity p38 (p38 MAP kinase [2]): 2.9

Molecule: Lipopolysaccharide
- Relative Protein Kinase Activity p38 (p38 MAP kinase [4]; [8]): 3.7
- p38 activation (in words) (p38 MAP kinase [4]; CHO cells, 10 ng/ml LPS): only slightly activated
- Relative Protein Kinase Activity JNK (JNK1 [5]; [8]): 3.6
- JNK1 activation (in words) (JNK1 [5]; CHO cells, 10 ng/ml LPS): only slightly activated

Molecule: Epidermal Growth Factor: EGF purified from mouse salivary glands
- ATF2 phosphorylation by p38 MAP kinase isolated from treated cells (in words) (p38 MAP kinase [6]): not phosphorylated
- JNK1 activation (in words) (JNK1 [1]): only weakly activated
- Relative Protein Kinase Activity JNK (JNK1 [1]): 1.9
- p38 activation (in words) (p38 MAP kinase [2]): only weakly activated
- Relative Protein Kinase Activity p38 (p38 MAP kinase [2]): 2.1

Molecule: Interleukin-1: IL-1α from Genzyme Corp., pro-inflammatory cytokine
- shift in ATF2 electrophoretic mobility (in words) (ATF2): A shift in ATF2 electrophoretic mobility was observed
- JNK1 activation (in words) (JNK1 [1]): strongly activated
- Relative Protein Kinase Activity JNK (JNK1 [1]): 8.9
- p38 activation (in words) (p38 MAP kinase [2]): strongly activated
- Relative Protein Kinase Activity p38 (p38 MAP kinase [2]): 6.2

B1: GAL4-ATF2 (Ala^69.71): GAL4-ATF2 fusion protein with Thr69 and Thr71 replaced with Ala (protein)
chain: MKLLSSIEQACDICRLKKLKCSKEKPKCAKCLKNNWECRYSPKTKRSPLTRAHLTEVESRLERLEQLFLLIFPREDLDMILKMDSLQDIKALLTGLFVQDNVNKDAVTDRLASVETDMPLTLRQHRISATSSSEESSNKGQRQLTVSMKFKLHVNSARQYKDLWNMSDDKPFLCTAPGCGQRFTNEDHLAVHKHKHEMTLKFGPARNDSVIVADQAPAPTRFLKNCEEVGLFNELASPFENEFKKASEDDIKKMPLDLSPLATPIIRSKIEEPSVVETTHQDSPLPHPESTTSDEKEVPLAQTAQPTSAIVRPASLQVPNVLLTSSDSSVIIQQAVPSPTSSTVITQAPSSNRPIVPVPGPFPLLLHLPNGQTMPVAIPASITSSNVHVPAAVPLVRPVTMVPSVPGIPGPSSPQPVQSEAKMRLKAALTQQHPPVTNGDTVKGHGSGLVRTQSEESRPQSLQQPATSTTETPASPAHTTPQTQSTSGRRRRAANEDPDEKRRKFLERNRAAASRCRQKRKVWVQSLEKKAEDLSSLNGQLQSEVTLLRNEVAQLKQLLLAHKDCPVTAMQKKSGYHTADKDDSSEDISVPSSPHTEAIQHSSVSTSNGVSSTSKAEAVATSVLTQMADQSTEPALSQIVMAPSSQSQPSGS
- LUCIFERASE ACTIVITY [7]: 29,000 Light Units/OD

B2: GAL4-ATF2 (wild type): fusion protein consisting of ATF2 and the GAL4 DNA binding domain, wild-type Thr69,71 (protein)
chain: MKLLSSIEQACDICRLKKLKCSKEKPKCAKCLKNNWECRYSPKTKRSPLTRAHLTEVESRLERLEQLFLLIFPREDLDMILKMDSLQDIKALLTGLFVQDNVNKDAVTDRLASVETDMPLTLRQHRISATSSSEESSNKGQRQLTVSMKFKLHVNSARQYKDLWNMSDDKPFLCTAPGCGQRFTNEDHLAVHKHKHEMTLKFGPARNDSVIVADQTPTPTRFLKNCEEVGLFNELASPFENEFKKASEDDIKKMPLDLSPLATPIIRSKIEEPSVVETTHQDSPLPHPESTTSDEKEVPLAQTAQPTSAIVRPASLQVPNVLLTSSDSSVIIQQAVPSPTSSTVITQAPSSNRPIVPVPGPFPLLLHLPNGQTMPVAIPASITSSNVHVPAAVPLVRPVTMVPSVPGIPGPSSPQPVQSEAKMRLKAALTQQHPPVTNGDTVKGHGSGLVRTQSEESRPQSLQQPATSTTETPASPAHTTPQTQSTSGRRRRAANEDPDEKRRKFLERNRAAASRCRQKRKVWVQSLEKKAEDLSSLNGQLQSEVTLLRNEVAQLKQLLLAHKDCPVTAMQKKSGYHTADKDDSSEDISVPSSPHTEAIQHSSVSTSNGVSSTSKAEAVATSVLTQMADQSTEPALSQIVMAPSSQSQPSGS
- LUCIFERASE ACTIVITY [7]: 320,000 Light Units/OD
